According to patent US20130231290A1, “METHODS OF DIAGNOSING AND TREATING NEURODEGENERATIVE DISEASES” (DIGNITY HEALTH, priority 2010, published 2013):

Assays:
hippocampal CA1 slices = experiment: CCh-induced network synchronization, field potential recordings in hippocampal CA1 slices from WT mice; assay type: cell-based, mouse; details: 50 μM bath-perfusion, mice 6 months old
From the text: (§1) Comparing CCh-induced network synchronization in the hippocampal CA1 slices from WT and α7−/− mice (6 months old) using field potential recordings allowed testing of whether α7-nAChRs contribute to network synchronization and seizure susceptibility.

[1] = system: hippocampal slices prepared from 3×Tg-AD mice; experiment: CCh-induced network synchronization, field recordings in CA1 of hippocampal slices from 3×Tg-AD mice; assay type: cell-based, mouse; details: 3×Tg mice (10 month-old) compared to age-matched WT mice
α7−/− slices = experiment: CCh-induced network synchronization, field potential recordings in hippocampal CA1 slices from α7−/− mice; assay type: cell-based, mouse; details: 50 μM, mice 6 months old
From the text: as §1

heteromeric α7β2-nAChRs = target: T1, heteromeric α7β2-nAChRs (Rattus norvegicus, UniProt P12390+Q05941); assay type: cell-based
T1 construct: expressed in transfected cells; host or cells: Xenopus laevis oocytes injected with cRNA (pGEMHE vector)
T1 sequence (Q05941 23-502): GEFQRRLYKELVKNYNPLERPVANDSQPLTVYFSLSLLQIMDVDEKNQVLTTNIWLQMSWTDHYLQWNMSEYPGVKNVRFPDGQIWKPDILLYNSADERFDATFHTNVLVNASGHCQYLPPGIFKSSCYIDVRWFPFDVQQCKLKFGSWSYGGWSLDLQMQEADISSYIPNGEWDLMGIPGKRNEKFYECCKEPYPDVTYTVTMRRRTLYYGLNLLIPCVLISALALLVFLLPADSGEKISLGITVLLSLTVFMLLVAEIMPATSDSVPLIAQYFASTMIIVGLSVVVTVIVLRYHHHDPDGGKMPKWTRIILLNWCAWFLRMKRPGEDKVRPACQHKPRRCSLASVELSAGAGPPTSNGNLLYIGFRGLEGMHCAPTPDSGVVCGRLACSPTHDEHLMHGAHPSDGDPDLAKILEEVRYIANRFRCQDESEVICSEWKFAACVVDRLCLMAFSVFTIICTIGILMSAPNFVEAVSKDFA
T1 sequence (P12390 25-500): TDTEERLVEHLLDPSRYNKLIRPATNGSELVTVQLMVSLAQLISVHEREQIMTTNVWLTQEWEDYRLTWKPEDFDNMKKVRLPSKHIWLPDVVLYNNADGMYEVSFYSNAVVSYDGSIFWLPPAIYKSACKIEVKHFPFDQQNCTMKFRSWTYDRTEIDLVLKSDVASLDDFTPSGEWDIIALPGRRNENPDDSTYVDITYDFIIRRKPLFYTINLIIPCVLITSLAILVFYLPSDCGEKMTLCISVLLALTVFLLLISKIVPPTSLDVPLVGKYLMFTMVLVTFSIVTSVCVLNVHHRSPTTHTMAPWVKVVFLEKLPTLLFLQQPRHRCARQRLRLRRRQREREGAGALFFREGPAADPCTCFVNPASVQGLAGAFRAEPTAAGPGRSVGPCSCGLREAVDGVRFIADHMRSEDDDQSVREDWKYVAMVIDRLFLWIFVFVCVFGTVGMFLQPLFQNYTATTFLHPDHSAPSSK

[2] = target: α7β2-nAChRs on MS/DB cholinergic neurons (Rattus norvegicus, UniProt P12390+Q05941); experiment: Perforated-patch whole-cell recording of nAChR-mediated (choline/ACh-induced) currents in acutely dissociated MS/DB cholinergic neurons; assay type: cell-based
α7β2-nAChRs on MS/DB cholinergic neurons (Rattus norvegicus, UniProt P12390+Q05941), sequence (Q05941 23-502): as the sequence (Q05941 23-502) above
α7β2-nAChRs on MS/DB cholinergic neurons (Rattus norvegicus, UniProt P12390+Q05941), sequence (P12390 25-500): as the sequence (P12390 25-500) above

[3] = target: T2, homomeric α7-nAChRs on VTA DAergic neurons (Rattus norvegicus, UniProt Q05941); assay type: cell-based
T2 construct: native nAChR responses in rat MS/DB or VTA neurons; endogenous in cells; host or cells: acutely dissociated VTA dopaminergic neurons of Wistar rats
T2 sequence (Q05941 23-502): as the sequence (Q05941 23-502) above

[4] = target: T3, α7-containing-nAChRs in nAChR β2 subunit knockout mice (Mus musculus, UniProt P49582); assay type: cell-based
T3 construct: MS/DB neurons derived from nAChR β2 subunit knock-out mice; endogenous in cells; host or cells: acutely dissociated MS/DB neurons of nAChR β2 knockout mice (C57/Bl6 background)
T3 sequence (P49582 23-502): as the sequence (Q05941 23-502) above, with A402T counted along it

[5] = system: cultured hippocampal pyramidal neurons; experiment: Patch-clamp recording of neuronal excitability in cultured hippocampal neurons after chronic Aβ; assay type: cell-based, mouse; details: for neuronal excitability (spontaneous bursting AP firing, input-output curve): chronic exposure, treated vs untreated neurons
MS/DB neurons = experiment: Current-clamp recording of spontaneous action potential firing in dissociated MS/DB neurons; assay type: cell-based, rat; details: 1 μM
[6] = system: α7−/− hippocampal neurons; experiment: Aβ toxicity in α7−/− hippocampal neurons; assay type: cell-based, mouse; details: α7−/− compared to WT hippocampal neurons
GABAA receptors = experiment: GABA-induced currents in rat MS/DB cholinergic neurons; assay type: cell-based; details: 1 nM peptide; 0.1 mM GABA
[7] = system: ionotropic glutamate receptors; experiment: Glutamate-induced currents in rat MS/DB cholinergic neurons; assay type: cell-based; details: 1 nM peptide; 1 mM glutamate
[8] = system: cultured mouse hippocampal neurons; experiment: Aβ-induced degeneration of cultured hippocampal neurons (DAPI staining, LDH levels); assay type: cell-based
neurons from α7−/− mice = experiment: Neuronal excitability after chronic Aβ in cultured hippocampal neurons from α7−/− mice; assay type: cell-based, mouse; details: chronic exposure
From the text: To further investigate whether pharmacological block of α7-nAChR eliminated the expression of neuronal hyperexcitation after chronic Aβ exposure. […] Comparing cultured neurons from WT and α7−/− mice could further establish if α7-nAChRs play a role in the induction of Aβ-induced neuronal hyperexcitation by comparing cultured neurons from WT and α7−/− mice.

[9] = target: T4, α7β2-nAChRs on MS/DB cholinergic neurons (Mus musculus, UniProt P49582+Q9ERK7); experiment: Choline-induced currents in MS/DB neurons from wild-type mice; assay type: cell-based; details: 1 nM
T4 construct: Compared to MS/DB neurons from WT mice; endogenous in cells; host or cells: acutely dissociated MS/DB neurons of wild-type C57/Bl6 mice
T4 sequence (P49582 23-502): as the sequence (Q05941 23-502) above, with A402T counted along it
T4 sequence (Q9ERK7 26-501): as the sequence (P12390 25-500) above, with A350T, V371M, R379Q, T383A, P387L, V391M, V449I, P468S counted along it

[10] = chronic Aβ, neurons from WT mice

C[N+](C)(C)CCOC(N)=O [CCh, carbachol]
induced network synchronization (hippocampal CA1 slices): induced two types of network synchronizations | induced network synchronization [1]: much stronger network synchronization | induced network synchronization (α7−/− slices): failed to induce θ-oscillations

CO[C@H]1CC=C2CCN3CCC4=C(CC(=O)OC4)[C@]23C1 [DHβE, dihydro-β-erythroidine]
sensitivity to functional blockade, α7β2-nAChR compared with homomeric α7-nAChR (heteromeric α7β2-nAChRs; 10 mM choline-induced currents in oocytes): more sensitive | Hill coefficient of concentration-inhibition curve ([2]; 10 mM choline-induced currents, MS/DB neurons, n=8): 0.9 | IC50 ([2]; 10 mM choline, MS/DB neurons, n=8, read-out: IC50 for inhibition of choline-induced currents): 170 nM | potency difference as inhibitor of choline-induced current, MS/DB vs VTA neurons ([2]; printed as less potent in MS/BD than in VTA neurons): ~500 fold | Hill coefficient of concentration-inhibition curve ([3]; 10 mM choline-induced currents, VTA neurons): 0.3 | IC50 ([3]; 10 mM choline, VTA neurons, n=7, read-out: IC50 for inhibition of choline-induced currents): > 100000 nM | antagonist sensitivity of choline-induced currents ([4]; MS/DB neurons from β2 knockouts compared with wild-type): lower sensitivity

CCN1C[C@]2(COC(=O)c3ccccc3N3C(=O)C[C@H](C)C3=O)CC[C@H](OC)[C@@]34[C@@H]5C[C@H]6[C@H](OC)[C@@H]5[C@](O)(C[C@@H]6OC)[C@@](O)([C@@H](OC)[C@H]23)[C@@H]14 [MLA, methyllycaconitine]
effect on enhanced neuronal excitation after chronic Aβ exposure ([5]; following a depolarizing pulse, MLA pretreated for 2 min, Aβ oligomers for 9 days): reversibly eliminated

CNCC/C=C/c1cccnc1 [RJR-2403]
whole-cell current response to agonist [2]: insensitive | whole-cell current response to agonist [3]: mimicked

C[C@@H]1O[C@H](C[N+](C)(C)C)C[C@H]1O [muscarine]
sensitivity of spontaneous action potential firing (MS/DB neurons): insensitive

Aβ1-42: amyloid beta peptides at positions 1-42 of the amyloid precursor protein (APP), purchased from rPeptide
sensitivity of choline-induced currents to peptide (heteromeric α7β2-nAChRs): demonstrated sensitivity | sEPSC amplitude [5, 10]: but not amplitude | sEPSC frequency [5, 10]: enhances sEPSC frequency | neuronal excitability (spontaneous bursting AP firing, input-output curve) [5]: shifted leftwards | effect on ACh-induced current [2]: evident | effect on choline-induced currents [3]: not sensitive | toxic effects on hippocampal neurons [6]: did not show toxic effects | inhibition of GABA-induced currents (GABAA receptors): insensitive | suppression of choline-induced currents [4]: failed to suppress | inhibition of glutamate-induced currents [7]: insensitive | cytotoxicity by LDH levels ([8]; 100 nM for 4, 7 and 10 days, primary cultured hippocampal neurons): increased LDH levels | loss of cultured hippocampal neurons (DAPI staining) ([8]; 100 nM over several days): cell loss in an exposure-time-dependent manner | induction of neuronal hyperexcitation (neurons from α7−/− mice): failed to evoke neuronal hyperexcitation | suppression of choline-induced currents [9]: did suppress

fibrillar Aβ: Aβ1-42 stock incubated at 37° C. for 48 h at pH 6.0, predominantly fibrillar form
mean resting membrane potential of treated neurons ([5]; 10 days treatment, n=11, untreated −62.8±3.3 mV): −53.4±2.6 mV | neuronal excitability (spontaneous bursting AP firing, input-output curve) [5]: spontaneous bursting AP firing was observed | suppression of choline-induced responses by peptide form [2]: weaker inhibitory effect

monomeric Aβ1-42: Aβ1-42 reconstituted in DMSO, predominant monomeric form
suppression of choline-induced responses by peptide form [2]: failed to suppress

oligomeric Aβ1-42: Aβ1-42 reconstituted in distilled water, predominantly oligomeric form
suppression of choline-induced responses by peptide form [2]: greatest suppression
